Source: patent publication US10473646B2, “In vitro culturing or expanding human or animal tissue” (UNIVERSITAETSSPITAL BASEL, priority 2014, dated 2019)

Tests used:
Assay type in all cases: cell-based, human
[1] = system: Luminal A breast cancer tissue; assay: Estrogen supplementation effect on in vitro culture of Luminal A breast cancer tissue chunks; settings: 200 ng/mL, medium with 10% autologous serum
Method: (§1) The system is tested mainly for colorectal cancer and Luminal A breast cancer. Thereby a tissue specimen is manually cut in small chunks at a size of 1 mm to 2 mm per side. The pieces are placed in between two collagen scaffolds having a diameter of 8 mm to create an assembly or “sandwich” that it is then placed in a perfusion chamber of the 3D perfusion bioreactor. For each bioreactor, 8-10 mL of culture media are used. The chunks are cultured for 10 to 20 days without medium change.
(§2) Thereby, essentially the same or similar methods and procedures are applied as described hereinbefore in connection with the second example directed to colorectal cancer tissue.
(§3) Luminal A breast cancer is defined as estrogen receptor (ER) positive, progesterone receptor (PR) positive, human epidermal growth factor receptor 2 (HER2) negative and with few proliferating tumor cells (low % of Ki67 positive cells). This type of tumor requires estrogen as growth factor for its survival and expansion. The downsized tissue or tissue chunks are cultured in a medium containing 10% of human autologous serum (AS), therefore receiving all the growth factors comprising the estrogen. […]
The estrogen supplementation effect on in vitro culture is evaluated. […]

[2] = system: Luminal A breast cancer tissue; assay: In-vitro drug test on Luminal A breast cancer tissue chunks cultured in 3D perfusion bioreactor; settings: 100 nM, added at day 0 of bioreactor culture
Method: as §1, §2, §3

[3] = system: tumor infiltrating lymphocytes (TILs) in Luminal A Breast Cancer (MAM18); assay: PHA stimulation of tumor infiltrating lymphocytes in in vitro cultured tumor chunks (immunohistochemistry CD45, CD3, CD68); settings: 1 ng/mL added at day 0, 7 days
Method: One important component of the tumor microenvironment is represented by the tumor infiltrating lymphocytes (TILs) that for some tumor types plays an important role by determining the patient prognosis and it is gaining a major attention in the so called cancer immune-therapy. By using PHA (Phytohemagglutinin), TILs are stimulated in their metabolic and proliferative activity, in order to understand if it was possible their stimulation inside the in vitro cultured tumor chunks. The PHA (1 ng/mL) is added at the beginning of the bioreactor culture (day 0).
These raise the possibility to study immunological question or test cancer immunotherapies on in vitro cultured tumor specimens.

**Q.** For 2-Estradiol, which “survival and proliferation of the tissue with extra estrogen supplementation (E+) versus without (E-)” value [1] is on record?
**A.** Its value is “do not show any particular difference”.

**Q.** `C[C@]12CC[C@@H]3c4ccc(O)cc4C[C@@H](CCCCCCCCC[S+]([O-])CCCC(F)(F)C(F)(F)F)[C@H]3[C@@H]1CC[C@@H]2O` (stereo partly drawn) [Fulvestrant] was tested. Which “effect of anti-estrogen receptor drug treatment on in vitro cultured tumor tissue (FIG. 13)” value [2] did it give?
**A.** The value was “there is an effect”.

**Q.** With Phytohemagglutinin [PHA] as the compound, how does the “presence of TILs after PHA treatment (CD45, CD3, CD68 staining, FIG. 14)” value [3] read?
**A.** The value was “the presence of TILs is still detectable”.
